Results as given in the Deep4Chem optical property database.

Test: photoluminescence quantum yield (fraction); solvent given as SMILES

For `CN1C(=O)c2cccc3c(-n4c5ccccc5c5ccccc54)ccc(c23)C1=O`, the photoluminescence quantum yield (in C1CCOC1) was 0.031, the photoluminescence quantum yield (in CCCCCC) was 0.895 and the photoluminescence quantum yield (in ClC(Cl)Cl) was 0.204. The photoluminescence quantum yield (in ClCCl) was 0.029.
`CC(C)(C)OC(=O)COc1ccc2c(c1)oc(=O)c1c(=O)oc3ccccc3c12` showed a photoluminescence quantum yield (in CS(C)=O) of 0.31 and a photoluminescence quantum yield (in ClCCl) of 0.008.
With `CCCCN1C(=O)c2cc(Oc3ccc(C(C)(C)C)cc3)c3c4c(Oc5ccc(C(C)(C)C)cc5)cc5c(=O)[nH]/c(=C\c6ccccn6)c6cc(Oc7ccc(C(C)(C)C)cc7)c(c7c(Oc8ccc(C(C)(C)C)cc8)cc(c2c37)C1=O)c4c56` the photoluminescence quantum yield (in C1CCOC1) was 0.336, the photoluminescence quantum yield (in Cc1ccccc1) was 0.408 and the photoluminescence quantum yield (in ClCCl) was 0.421.
With `CC(C)(C)c1ccc2c(c1)c1cc(C(C)(C)C)ccc1n2-c1ccccc1-c1nc(-c2ccccc2P(=O)(c2ccccc2)c2ccccc2)nc(-c2ccccc2P(=O)(c2ccccc2)c2ccccc2)n1` the photoluminescence quantum yield (in O=P(c1ccccc1)(c1ccccc1)c1ccccc1Oc1ccccc1P(=O)(c1ccccc1)c1ccccc1) was 0.38.
Work on `CC(C)[Si](C#Cc1c2nc3ccccc3nc2c(C#C[Si](C(C)C)(C(C)C)C(C)C)c2nc3c4ccccc4c(=O)c4ccccc4c3nc12)(C(C)C)C(C)C` yielded a photoluminescence quantum yield (in ClCCl) of 0.5.
In the case of `CC(C)c1cccc(C(C)C)c1N1C(=O)c2cccc3c(Oc4ccc(C(C)(C)c5ccccc5)cc4)ccc(c23)C1=O`, the photoluminescence quantum yield (in ClCCl) is reported as 0.11.
For `COc1ccc(C2=CC(c3ccccc3)=C(c3ccccc3)C2)c2ccccc12`, the photoluminescence quantum yield (in ClCCl) was 0.0685.
Compound `CC(C)[Si](C#Cc1c2nc3c(nc2c(C#C[Si](C(C)C)(C(C)C)C(C)C)c2nc4c(nc12)C1c2ccccc2C4c2ccccc21)C1c2ccccc2C3c2ccccc21)(C(C)C)C(C)C` has a photoluminescence quantum yield (in CCCCCC) of 0.33.
`O=C1c2ccc3c4c(NC5CCCCC5)cc5c6c(ccc(c7c(NC8CCCCC8)cc(c2c37)C(=O)N1C1CCCCC1)c64)C(=O)N(C1CCCCC1)C5=O` gave a photoluminescence quantum yield (in ClC(Cl)Cl) of 0.008.
With `C#CCn1c2ccccc2c2cc(/C=C/c3c(Cl)c(C)c4n3[B-](F)(F)[N+]3=C(C)C(Cl)=C(C)C3=C4c3ccc(I)cc3)ccc21` the photoluminescence quantum yield (in CC#N) was 0.43, the photoluminescence quantum yield (in CS(C)=O) was 0.33 and the photoluminescence quantum yield (in ClC(Cl)Cl) was 0.62.
With `Cc1ccc(-c2cccc3ncc(-c4ccccc4)n23)cc1` the photoluminescence quantum yield (in ClCCl) was 0.28.
`COc1ccc(-c2c3ccc([nH]3)c3nc(c(-c4ccc([N+](=O)[O-])cc4)c4ccc([nH]4)c4ccc([nH]4)c(-c4ccc(OC)cc4)c4ccc2o4)C=C3)cc1` showed a photoluminescence quantum yield (in C1CCOC1) of 0.013, a photoluminescence quantum yield (in Cc1ccccc1) of 0.075 and a photoluminescence quantum yield (in c1ccccc1) of 0.08.
For `O=C(O)c1ccc(-c2ccc(-c3nc(-c4ccccc4)c4ccccn34)cc2)s1`, the photoluminescence quantum yield (in CC#N) was 0.44.
In the case of `Cc1cc(-c2ccc(-c3ccccc3)cc2)cc(C)[o+]1`, the photoluminescence quantum yield (in ClCCl) is reported as 0.78.
`Cc1ccc(-n2c(-c3ccccc3NS(=O)(=O)c3ccc(C)cc3)nc3c4ccccc4c4ccccc4c32)cc1` showed a photoluminescence quantum yield (in Cc1ccccc1) of 0.007.
`Cn1ccc(-c2nc3ccccc3nc2/C=C/N2CCCC2)c1` showed a photoluminescence quantum yield (in C1CCCCC1) of 0.184, a photoluminescence quantum yield (in C1CCOC1) of 0.495 and a photoluminescence quantum yield (in CC#N) of 0.33. The photoluminescence quantum yield (in CC(C)=O) was 0.414, the photoluminescence quantum yield (in CCO) was 0.022 and the photoluminescence quantum yield (in CO) was 0.006. The photoluminescence quantum yield (in CS(C)=O) was 0.325, the photoluminescence quantum yield (in Cc1ccccc1) was 0.469 and the photoluminescence quantum yield (in ClCCl) was 0.611.
`CCOC(=O)c1ccc(C2=C(c3ccccc3)c3oc4ccccc4[n+]3[B-](F)(F)O2)cc1` gave a photoluminescence quantum yield (in C1CCOC1) of 0.011.
Compound `c1ccc2c(c1)ccc1c3ccccc3ccc21` has a photoluminescence quantum yield (in ClCCl) of 0.12.
For `COc1cccc(OC)c1C1=C2C(C)=CC(C)=[N+]2[B-](F)(F)n2c(C)cc(C)c21`, the photoluminescence quantum yield (in C1CCOC1) was 0.64, the photoluminescence quantum yield (in CC#N) was 0.54 and the photoluminescence quantum yield (in CC(=O)C(C)(C)C) was 0.64. It also gave a photoluminescence quantum yield (in CC(C)=O) of 0.72, a photoluminescence quantum yield (in CCCCCC) of 0.71 and a photoluminescence quantum yield (in CCOC(C)=O) of 0.47. It also gave a photoluminescence quantum yield (in CO) of 0.58.
`CC(C)(C)c1cc2c3c(c1)-c1cccc4c1N(B3N1c3ccccc3Sc3cccc-2c31)c1ccccc1S4` showed a photoluminescence quantum yield (in C1CCOC1) of 0.05.
Work on `Cc1nc2c(ccc3c2sc(/C=C/c2ccc(N(C)C)cc2)[n+]3C)s1` yielded a photoluminescence quantum yield (in ClC(Cl)Cl) of 0.02.
For `CC(C)(C)c1cc2c(c(C(C)(C)C)c1)O[B-](F)(F)[n+]1c-2nc(-c2ccccc2)c2ccccc21`, the photoluminescence quantum yield (in Cc1ccccc1) was 0.002.
`c1ccc(-c2nnc(-c3ccc(N4c5ccccc5N(c5ccccc5)c5ccccc54)cc3)n2-c2ccccc2)cc1` showed a photoluminescence quantum yield (in Cc1ccccc1) of 0.07 and a photoluminescence quantum yield (in c1cc(-n2c3ccccc3c3ccccc32)cc(-n2c3ccccc3c3ccccc32)c1) of 0.42.
Work on `Fc1cc(F)c2cc3cccc[n+]3cc2c1` yielded a photoluminescence quantum yield (in O) of 0.3.
Compound `CC(C)(C)c1ccc(N(c2ccc(C(C)(C)C)cc2)c2ccc(S(=O)(=O)c3ccc(N(c4ccc(C(C)(C)C)cc4)c4ccc(C(C)(C)C)cc4)cc3)cc2)cc1` has a photoluminescence quantum yield (in Cc1ccccc1) of 0.65.
In the case of `CCN(CC)c1ccc2c(-c3ccccc3C(=O)O)c3c([o+]c2c1)/C(=C/c1nc(-c2ccccc2)n2ccccc12)CCC3`, the photoluminescence quantum yield (in ClCCl) is reported as 0.4.
Work on `CCn1c2sccc2c2c3nsnc3c3c4ccsc4n(CC)c3c21` yielded a photoluminescence quantum yield (in C1CCOC1) of 0.51, a photoluminescence quantum yield (in CCOC(C)=O) of 0.47 and a photoluminescence quantum yield (in CN(C)C=O) of 0.43. The photoluminescence quantum yield (in Cc1ccccc1) was 0.45 and the photoluminescence quantum yield (in ClCCl) was 0.34.
With `CCN(CC)c1ccc2cc(-c3cn4cc(OC)ccc4n3)c(=O)oc2c1` the photoluminescence quantum yield (in ClC(Cl)Cl) was 0.9.
Work on `COC(=O)c1ccc(-c2cc3ccc4cccc5ccc(c2)c3c45)cc1` yielded a photoluminescence quantum yield (in Cc1ccccc1) of 0.43.
With `CC(C)(C)c1ccc2oc3nc4oc5ccc(N(c6ccccc6)c6ccccc6)cc5c4cc3c2c1` the photoluminescence quantum yield (in ClC(Cl)Cl) was 0.083.
